Results: patent US5059624A, “Guanidine derivatives having hypotensive activity, composition containing them and process for obtaining them” (Consiglio Nazionale Delle Ricerche, priority 1988, dated 1991)
Read-outs that look alike come from different tables or passages of the source.

System: male Wistar rats
Conditions: for cardiovascular and respiratory effects (in words): i.v.
[1] = doses higher than 50-800 μg/kg i.v., rat

Description: In order to check its activity, diguanido-II was dissolved in a 0.9 % sodium chloride solution and administered through "rapid" i.v. route in male Wistar rats, under general anaesthesia obtained by means of 10% ethyl urethan (i ml/hg).
The active ingredients called guanido-III, -IV, -V, as well as agmatine and galegine, were also tested, after having been administered through "rapid" i.v. route in male Wistar rats (weighing average 280±5 g) under general anaesthesia obtained by means of 10% ethyl uretan (1 ml/hg, i.p.). The general experimental conditions were exactly the same as previously mentioned for guanido-I and diguanido-II, so that the cardiovascular and respiratory effects could be compared.
The parameters measured are as follows: systolic and diastolic systemic arterial pressure (AP), heart rate (HR), maximum rate of increase in the left ventricular isovolumetric pressure (dp/dt), respiratory frequency (RF) and tidal volume (TV). The doses (in μg/kg body weight, referred to the active substance) varied from 50 μg/kg to 6,400 μg/kg (ratio=2.0); in some cases higher does have been employed.

CC(C)=CCNC(=N)NCCCCN [guanido-III, prenylagmatine]
Δ AP DIAST (200 μg/kg i.v.): -2 ± 0.2 mmHg | Δ AP SYST (200 μg/kg i.v.): -2 ± 0.3 mmHg | Δ HR (200 μg/kg i.v.): 0 beats/min | Δ RF (200 μg/kg i.v.): +7 ± 4% | Δ TV (200 μg/kg i.v.): +9 ± 2% | Δ dp/dt (200 μg/kg i.v.): +214 ± 20 mmHg/sec | Δ AP DIAST (400 μg/kg i.v.): -2 ± 0.6 mmHg | Δ AP SYST (400 μg/kg i.v.): -3.5 ± 1.5 mmHg | Δ HR (400 μg/kg i.v.): 0 beats/min | Δ RF (400 μg/kg i.v.): +7 ± 3% | Δ TV (400 μg/kg i.v.): +17 ± 6% | Δ dp/dt (400 μg/kg i.v.): +321 ± 17 mmHg/sec | Δ AP DIAST (800 μg/kg i.v.): -13 ± 4 mmHg | Δ AP SYST (800 μg/kg i.v.): -11 ± 1 mmHg | Δ HR (800 μg/kg i.v.): -15 ± 3 beats/min | Δ RF (800 μg/kg i.v.): +10 ± 4% | Δ TV (800 μg/kg i.v.): +33 ± 9% | Δ dp/dt (800 μg/kg i.v.): +1356 ± 428 mmHg/sec | Δ AP DIAST (1600 μg/kg i.v.): -21 ± 4 mmHg | Δ AP SYST (1600 μg/kg i.v.): -13 ± 2 mmHg | Δ HR (1600 μg/kg i.v.): -23 ± 10 beats/min | Δ RF (1600 μg/kg i.v.): +18 ± 3% | Δ TV (1600 μg/kg i.v.): +21 ± 7% | Δ dp/dt (1600 μg/kg i.v.): +2157 ± 655 mmHg/sec | Δ AP DIAST (3200 μg/kg i.v.): -36 ± 6 mmHg | Δ AP SYST (3200 μg/kg i.v.): -36 ± 7 mmHg | Δ HR (3200 μg/kg i.v.): -26 ± 8 beats/min | Δ RF (3200 μg/kg i.v.): -42 ± 9% | Δ TV (3200 μg/kg i.v.): -73 ± 18% | Δ AP DIAST (6400 μg/kg i.v.): -85 ± 3 mmHg | Δ AP SYST (6400 μg/kg i.v.): -112 ± 3 mmHg | Δ HR (6400 μg/kg i.v.): -310 ± 25 beats/min | Δ RF (6400 μg/kg i.v.): -100% | Δ TV (6400 μg/kg i.v.): -100% | Δ dp/dt (6400 μg/kg i.v.): -5422 ± 514 mmHg/sec | cardiovascular and respiratory effects (in words) (rat): systolic and diastolic arterial hypotension (well evident starting from the dose of 800 μg/kg), bradycardia, increase of dp/dt (up to the dose of 3,200 μg/kg). increase of RF and TV (up to the dose of 1,600 μg/kg) | death of the tested animals (rat, in vivo, iv): caused death of the tested animals

N=C(N)N [guanidine]
alterations of RF, TV and HR (in words) (50-800 μg/kg i.v., rat): did not cause in the rats under test significative alterations of RF, TV and HR | dp/dt (in words) (50-800 μg/kg i.v., rat): a little reduction of dp/dt | hypotensive responses (in words) (50-800 μg/kg i.v., rat): slight and not significant hypotensive responses | the other parameters (in words) (6,400-1,2600 μg/kg i.v., rat): slight changes | RF and TV (in words) [1]: reduction of RF and TV | cardiac inotropism (dp/dt) (in words) [1]: a little increase in cardiac inotropism (dp/dt) | systemic arterial pressure (in words) [1]: biphasic responses of a slight entity (hypo-hypertension)

NCCCCN=C(N)N [agmatine, 4-(aminobutyl)guanidine, reference compound]
Δ AP DIAST (200 μg/kg i.v.): -4 ± 1 mmHg | Δ AP SYST (200 μg/kg i.v.): -5 ± 2 mmHg | Δ HR (200 μg/kg i.v.): 0 beats/min | Δ RF (200 μg/kg i.v.): +9 ± 3% | Δ TV (200 μg/kg i.v.): +3 ± 1% | Δ dp/dt (200 μg/kg i.v.): +300 ± 89 mmHg/sec | Δ AP DIAST (400 μg/kg i.v.): -6 ± 2 mmHg | Δ AP SYST (400 μg/kg i.v.): -6 ± 1 mmHg | Δ HR (400 μg/kg i.v.): 0 beats/min | Δ RF (400 μg/kg i.v.): +11 ± 4% | Δ TV (400 μg/kg i.v.): +12 ± 4% | Δ dp/dt (400 μg/kg i.v.): +334 ± 54 mmHg/sec | Δ AP DIAST (800 μg/kg i.v.): -8 ± 2 mmHg | Δ AP SYST (800 μg/kg i.v.): -8 ± 2 mmHg | Δ HR (800 μg/kg i.v.): 0 beats/min | Δ RF (800 μg/kg i.v.): +12 ± 4% | Δ TV (800 μg/kg i.v.): +14 ± 2% | Δ dp/dt (800 μg/kg i.v.): +947 ± 131 mmHg/sec | Δ AP DIAST (1600 μg/kg i.v.): -10 ± 1 mmHg | Δ AP SYST (1600 μg/kg i.v.): -9 ± 3 mmHg | Δ HR (1600 μg/kg i.v.): 0 beats/min | Δ RF (1600 μg/kg i.v.): +11 ± 2% | Δ TV (1600 μg/kg i.v.): +25 ± 5% | Δ dp/dt (1600 μg/kg i.v.): +981 ± 94 mmHg/sec | Δ AP DIAST (3200 μg/kg i.v.): -11 ± 2 mmHg | Δ AP SYST (3200 μg/kg i.v.): -9 ± 2 mmHg | Δ HR (3200 μg/kg i.v.): -7 ± 2 beats/min | Δ RF (3200 μg/kg i.v.): +13 ± 4% | Δ TV (3200 μg/kg i.v.): +27 ± 4% | Δ dp/dt (3200 μg/kg i.v.): +1356 ± 164 mmHg/sec | Δ AP DIAST (6400 μg/kg i.v.): -13 ± 4 mmHg | Δ AP SYST (6400 μg/kg i.v.): -11 ± 4 mmHg | Δ HR (6400 μg/kg i.v.): -13 ± 5 beats/min | Δ RF (6400 μg/kg i.v.): +13 ± 5% | Δ TV (6400 μg/kg i.v.): +30 ± 7% | Δ dp/dt (6400 μg/kg i.v.): +3351 ± 417 mmHg/sec | Δ AP DIAST (12800 μg/kg i.v.): -18 ± 5 mmHg | Δ AP SYST (12800 μg/kg i.v.): -12 ± 2 mmHg | Δ HR (12800 μg/kg i.v.): -17 ± 2 beats/min | Δ RF (12800 μg/kg i.v.): +15 ± 2% | Δ TV (12800 μg/kg i.v.): +31 ± 7% | Δ dp/dt (12800 μg/kg i.v.): +2568 ± 432 mmHg/sec | Δ AP DIAST (25600 μg/kg i.v.): -23 ± 4 mmHg | Δ AP SYST (25600 μg/kg i.v.): -12 ± 3 mmHg | Δ HR (25600 μg/kg i.v.): -17 ± 7 beats/min | Δ RF (25600 μg/kg i.v.): +24 ± 4% | Δ TV (25600 μg/kg i.v.): +33 ± 9% | Δ dp/dt (25600 μg/kg i.v.): +3565 ± 813 mmHg/sec | Δ AP DIAST (51200 μg/kg i.v.): -34 ± 6 mmHg | Δ AP SYST (51200 μg/kg i.v.): -15 ± 1 mmHg | Δ HR (51200 μg/kg i.v.): -22 ± 1 beats/min | Δ RF (51200 μg/kg i.v.): +31 ± 7% | Δ TV (51200 μg/kg i.v.): +35 ± 6% | Δ dp/dt (51200 μg/kg i.v.): +5491 ± 869 mmHg/sec | cardiovascular and respiratory effects (in words) (rat): analogous to those induced by guanido-V., moreover, said active ingredient caused a constant increase in dp/dt, RF and TV
